Measurements published in paper PMC2911226, “Structural and Biochemical Characterization of the Human Cyclophilin Family of Peptidyl-Prolyl Isomerases” (PLoS Biology, 2010).

Columns and labels:
PPIL1 = target: T1, PPIL1 (Homo sapiens, UniProt Q9Y3C6); assay: Thermal stabilization assay (StarGazer static light scattering); assay type: binding; settings: protein approximately 20 µM, compound 50 µM; shift vs basal Tagg
T1 construct: His6 (thrombin cleavage site) (N); made in house; host or cells: E. coli BL21 Gold DE3
T1 sequence (Q9Y3C6 10-164 limits assumed): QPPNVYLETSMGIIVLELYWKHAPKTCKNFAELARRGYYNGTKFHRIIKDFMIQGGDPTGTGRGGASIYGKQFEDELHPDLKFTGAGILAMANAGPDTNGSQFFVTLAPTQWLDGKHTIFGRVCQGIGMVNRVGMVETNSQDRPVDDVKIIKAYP
Text: (§1) In order to elucidate the function of residues in the extended active site of the PPIase domain of the human cyclophilins, we probed the binding and catalytic function of these domains against either substrate or small-molecule inhibitors (see Figure 1 and Datapack S1 for graphical and tabular depictions of the active site). Three assays were utilized to explore these functions. […] This assay has been shown in several studies to be a reliable readout of small molecule binding for kinase and other enzyme families,[38]. […] Because of the inherent thermal stability characteristics of PPID and RanBP2, this technique was unable to distinguish between apo and cyclosporin-bound forms of those domains.
(§2) All protein samples used for static light scattering (StarGazer) trials were assessed for purity utilizing SDS-PAGE and verified for mass accuracy using mass spectrometry. Methods were generally as described as in [38]; protein at approximately 20 µM concentration was heated from room temperature to 80°C in the presence or absence of small molecules, including cyclosporins A, C, D, or H (LKT Labs, MN, USA). The […] were originally prepared in 100% DMSO at 50–100 mM concentration, then diluted to 50 µM for screening, thereby ensuring the final DMSO concentration was less than 5% during the experiment. […] Each compound was tested at least twice.

PPIE = target: T2, PPIE (Homo sapiens, UniProt Q9UNP9); assay: as above; assay type: binding; settings: protein approximately 20 µM, compound 50 µM; shift vs basal Tagg
T2 construct: His6 (thrombin cleavage site) (N); made in house; host or cells: E. coli BL21 Gold DE3
T2 sequence (Q9UNP9 143-299 limits assumed): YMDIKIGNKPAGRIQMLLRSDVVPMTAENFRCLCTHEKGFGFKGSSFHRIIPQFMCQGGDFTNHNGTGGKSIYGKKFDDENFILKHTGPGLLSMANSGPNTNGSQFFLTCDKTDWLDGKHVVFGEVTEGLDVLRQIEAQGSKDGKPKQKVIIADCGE
Text: as §1, §2

PPWD1 = target: T3, PPWD1 (Homo sapiens, UniProt Q96BP3); assay: as above; assay type: binding; settings: protein approximately 20 µM, compound 50 µM; shift vs basal Tagg
T3 construct: His6 with thrombin cleavage site (N); made in house; host or cells: E. coli BL21 Gold DE3
T3 sequence (Q96BP3 490-645 limits assumed): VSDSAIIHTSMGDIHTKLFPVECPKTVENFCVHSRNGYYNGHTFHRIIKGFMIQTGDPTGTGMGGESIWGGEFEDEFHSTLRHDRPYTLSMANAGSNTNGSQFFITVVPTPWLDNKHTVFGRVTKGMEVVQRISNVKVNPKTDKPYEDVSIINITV
Text: as §1, §2

NKTR = target: T4, NKTR (Homo sapiens, UniProt P30414); assay: as above; assay type: binding; settings: protein approximately 20 µM, compound 50 µM; shift vs basal Tagg
T4 construct: His6 with thrombin cleavage site (N); made in house; host or cells: E. coli BL21 Gold DE3
T4 sequence (P30414 10-175 limits assumed): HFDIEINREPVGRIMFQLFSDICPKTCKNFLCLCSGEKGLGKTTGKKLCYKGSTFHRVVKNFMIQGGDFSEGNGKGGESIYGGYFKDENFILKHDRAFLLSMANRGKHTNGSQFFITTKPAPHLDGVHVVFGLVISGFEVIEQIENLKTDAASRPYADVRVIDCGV
Text: as §1, §2

PPIH = target: T5, PPIH (Homo sapiens, UniProt O43447); assay: as above; assay type: binding; settings: protein approximately 20 µM, compound 50 µM; shift vs basal Tagg
T5 construct: His6 (thrombin cleavage site) (N); made in house; host or cells: E. coli BL21 Gold DE3
T5 sequence (O43447 14-176 limits assumed): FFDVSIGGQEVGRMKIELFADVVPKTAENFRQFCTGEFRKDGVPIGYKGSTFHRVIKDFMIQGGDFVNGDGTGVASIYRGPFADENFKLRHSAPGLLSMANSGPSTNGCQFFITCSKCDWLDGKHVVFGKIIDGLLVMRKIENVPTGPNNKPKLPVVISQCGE
Text: as §1, §2

PPIA = target: T6, PPIA (Homo sapiens, UniProt P62937); assay: as above; assay type: binding; settings: protein approximately 20 µM, compound 50 µM; shift vs basal Tagg
T6 construct: His6 (thrombin cleavage site) (N); made in house; host or cells: E. coli BL21 Gold DE3
T6 sequence (P62937 7-163 limits assumed): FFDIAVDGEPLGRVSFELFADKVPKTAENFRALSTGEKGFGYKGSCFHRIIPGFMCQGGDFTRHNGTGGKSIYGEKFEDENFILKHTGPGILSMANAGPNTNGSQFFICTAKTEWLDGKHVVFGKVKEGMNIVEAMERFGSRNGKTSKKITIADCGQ
Text: as §1, §2

PPIB = target: T7, PPIB (Homo sapiens, UniProt P23284); assay: as above; assay type: binding; settings: protein approximately 20 µM, compound 50 µM; shift vs basal Tagg
T7 construct: His6 (thrombin cleavage site) (N); made in house; host or cells: E. coli BL21 Gold DE3
T7 sequence (P23284 47-204 limits assumed): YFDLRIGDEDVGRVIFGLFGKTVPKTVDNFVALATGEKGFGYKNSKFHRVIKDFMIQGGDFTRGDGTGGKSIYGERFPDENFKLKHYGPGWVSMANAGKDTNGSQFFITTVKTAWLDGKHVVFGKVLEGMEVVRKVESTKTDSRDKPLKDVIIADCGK
Text: as §1, §2

PPIG [1] = target: T8, PPIG (Homo sapiens, UniProt Q13427); assay: as above; assay type: binding; settings: protein approximately 20 µM, compound 50 µM; shift vs basal Tagg
T8 construct: His6 (thrombin cleavage site) (N); made in house; host or cells: E. coli BL21 Gold DE3 (general method; the K125A/E126A crystallization mutant was grown in BL21 DE3 Codon Plus RIL)
T8 sequence (Q13427 11-176 limits assumed): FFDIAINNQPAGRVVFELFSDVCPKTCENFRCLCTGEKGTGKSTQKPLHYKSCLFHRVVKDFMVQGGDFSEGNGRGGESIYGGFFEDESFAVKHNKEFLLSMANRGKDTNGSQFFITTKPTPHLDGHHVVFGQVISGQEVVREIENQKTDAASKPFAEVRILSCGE
Text: as §1, §2

PPIC = target: T9, PPIC (Homo sapiens, UniProt P45877); assay: as above; assay type: binding; settings: protein approximately 20 µM, compound 50 µM; shift vs basal Tagg
T9 construct: His6 (thrombin cleavage site) (N); made in house; host or cells: E. coli BL21 Gold DE3
T9 sequence (P45877 41-198 limits assumed): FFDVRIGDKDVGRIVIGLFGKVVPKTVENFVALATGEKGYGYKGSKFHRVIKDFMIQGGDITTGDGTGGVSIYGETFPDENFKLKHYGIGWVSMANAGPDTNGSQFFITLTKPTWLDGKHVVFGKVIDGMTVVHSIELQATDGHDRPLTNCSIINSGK
Text: as §1, §2

PPIF = target: T10, PPIF (Homo sapiens, UniProt P30405); assay: as above; assay type: binding; settings: protein approximately 20 µM, compound 50 µM; shift vs basal Tagg
T10 construct: His6 (thrombin cleavage site) (N); made in house; host or cells: E. coli BL21 Gold DE3
T10 sequence (P30405 49-205 limits assumed): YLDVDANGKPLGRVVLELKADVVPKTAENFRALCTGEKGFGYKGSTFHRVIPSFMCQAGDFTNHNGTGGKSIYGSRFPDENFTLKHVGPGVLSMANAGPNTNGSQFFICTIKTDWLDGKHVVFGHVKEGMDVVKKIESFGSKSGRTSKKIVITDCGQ
Text: as §1, §2

PPID = target: T11, PPID (Homo sapiens, UniProt Q08752); assay: NMR-based tetrapeptide activity assay (1H/1H TOCSY); assay type: biochemical; settings: collapse of substrate cis/trans peaks; at least one of suc-AAPF-pNA, suc-AFPF-pNA, suc-AGPF-pNA; 25°C
T11 construct: His6 (thrombin cleavage site) (N); made in house; host or cells: E. coli BL21 Gold DE3
T11 sequence (Q08752 19-183 limits assumed): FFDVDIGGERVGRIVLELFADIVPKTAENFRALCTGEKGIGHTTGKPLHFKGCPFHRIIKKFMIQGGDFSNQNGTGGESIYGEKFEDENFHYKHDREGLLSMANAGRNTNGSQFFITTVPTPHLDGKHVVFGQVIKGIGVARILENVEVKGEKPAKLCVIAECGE
Text: (§3) A two-dimensional NMR experiment (1H/1H TOCSY) described previously,[40], the only in vitro protease-free method available to probe for both substrate binding and catalytic activity of cyclophilins, was used to assess the commercially available tetrapeptides of sequence AAPF, AFPF, and AGPF [34]. […] A number of articles have documented the drawbacks of the protease-coupled assay,[42]–[44], an obvious example being that the addition of protease to the reaction mixture in the chymotrypsin-coupled assay requires additional testing to ensure that the enzymes and substrates being screened are not proteolytic targets. […] We detected binding and turnover for at least one of the tetrapeptide substrates tested for PPIA, PPIB, PPIC, PPID, PPIE, PPIF, PPIG, PPIH, PPIL1, PPWD1, and NKTR (Table 1; see Figure S1 for representative data showing binding and activity). This correlated well with previously determined activities,[20],[21],[28],[30],[45],[46], and established activity measurements for PPIF, PPIG, and NKTR.
(§4) Most protein samples aimed at assessing binding and/or catalysis of tetrapeptide substrates were diluted to 500 µL with 10% D2O and placed into a Shigemi microcell (Allison Park, PA, USA). Typical samples contained 0.075 mM protein and 2 mM of suc-AAPF-pNA, suc-AFPF-pNA, or suc-AGPF-pNA (Bachem), along with 100 mM phosphate buffer pH 7 and 100 mM NaCl. Spectra were collected at 25°C on a Varian 600 or 900 MHz spectrometer (Palo Alto, CA, USA). Spectra were acquired using standard Varian BioPack sequences, processed using NMRpipe software and visualized using CCPN software. For samples used to assess binding of PPIA to peptides DEGPF, DFGPF, DYGPF, YGGPF, or VRGPF, samples were as above except protein concentration was 0.3 mM and spectra were collected at 10°C.

SDCCAG-10 = target: T12, SDCCAG-10 (Homo sapiens, UniProt Q6UX04); assay: as above; assay type: biochemical
T12 construct: His6 with thrombin cleavage site (N); made in house; host or cells: E. coli BL21 Gold DE3
T12 sequence (Q6UX04 11-166 limits assumed): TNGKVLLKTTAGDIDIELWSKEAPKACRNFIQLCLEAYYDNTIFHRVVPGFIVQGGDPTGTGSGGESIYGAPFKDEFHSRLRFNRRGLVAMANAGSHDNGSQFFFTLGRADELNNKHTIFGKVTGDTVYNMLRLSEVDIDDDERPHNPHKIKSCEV
Text: as §3, §4

PPIG [2] = target: T8, PPIG; assay: as above; assay type: biochemical; settings: collapse of substrate cis/trans peaks; at least one of suc-AAPF-pNA, suc-AFPF-pNA, suc-AGPF-pNA; 25°C
Text: as §3, §4

PPIL2 = target: T13, PPIL2 (Homo sapiens, UniProt Q13356); assay: as above; assay type: biochemical
T13 construct: His6 with thrombin cleavage site (N); made in house; host or cells: E. coli BL21 Gold DE3
T13 sequence (Q13356 278-433 limits assumed): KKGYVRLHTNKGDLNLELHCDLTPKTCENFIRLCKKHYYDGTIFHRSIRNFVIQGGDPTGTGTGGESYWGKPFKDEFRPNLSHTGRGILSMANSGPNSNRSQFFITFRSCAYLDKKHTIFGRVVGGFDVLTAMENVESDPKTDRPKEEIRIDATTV
Text: as §3, §4

[3] = collapse of substrate cis/trans peaks, suc-AAPF-pNA, suc-AFPF-pNA, suc-AGPF-pNA, 25°C

Molecule | Thermal Stability ΔTagg, CsC (PPIL1) [°C] | Thermal Stability ΔTagg, CsC (PPIE) [°C] | Thermal Stability ΔTagg, CsC (PPWD1) [°C] | Thermal Stability ΔTagg, CsC (NKTR) [°C] | Thermal Stability ΔTagg, CsC (PPIH) [°C] | Thermal Stability ΔTagg, CsC (PPIA) [°C] | Thermal Stability ΔTagg, CsC (PPIB) [°C] | Thermal Stability ΔTagg, CsC (PPIG [1]) [°C] | Thermal Stability ΔTagg, CsC (PPIC) [°C] | Thermal Stability ΔTagg, CsC (PPIF) [°C] | Tetrapeptide Activity (PPID) | Binding of substrate (peak centers shift without coalescence) (SDCCAG-10; Figure S1A) | Tetrapeptide Activity (SDCCAG-10; [3]) | Tetrapeptide Activity (PPIG [2]) | Binding of substrate (peak centers shift without coalescence) (PPIL2; Figure S1A) | Tetrapeptide Activity (PPIL2; [3])
C/C=C/C[C@@H](C)[C@@H](O)[C@H]1C(=O)N[C@@H]([C@@H](C)O)C(=O)N(C)CC(=O)N(C)[C@@H](CC(C)C)C(=O)N[C@@H](C(C)C)C(=O)N(C)[C@@H](CC(C)C)C(=O)N[C@@H](C)C(=O)N[C@H](C)C(=O)N(C)[C@@H](CC(C)C)C(=O)N(C)[C@@H](CC(C)C)C(=O)N(C)[C@@H](C(C)C)C(=O)N1C [CsC, cyclosporin C] | 1.7 | 6.8 | 5.2 | 3.0 | 7.3 | 1.9 | 3.4 | 2 | 7.0 | 10.7 | – | – | – | – | – | –
suc-AGPF-pNA | – | – | – | – | – | – | – | – | – | – | active isomerases | binding, but not catalysis | not active | active isomerases | binding, but not catalysis | not active
